According to patent publication US20230073755A1, “USE OF IGF1 IN COMBINATION WITH IGFEC24 IN PREPARATION OF MEDICINE FOR PROMOTING TISSUE REPAIR AND REGENERATION” (Chongqing University, priority 2020, published 2023):

How the values were obtained:
sciatic nerve = assay: Sciatic nerve injury repair in rat sciatic nerve injury (clamp) model; type: in vivo, SD rats
Excerpt: The 8-week-old female SD rats were randomly divided into sham-operated and operated groups, with 3 rats in each group. SD rats were anesthetized by intraperitoneal injection of 10% chloral hydrate, and after successful anesthesia, the rats were fixed, and their right hind limbs were exposed by shaving with a shaver, and disinfected twice with 75% alcohol. A 3-4 cm incision was made with a scalpel at the posterior lateral femur of the right hind limb to expose the biceps femoris muscle, and the muscle was bluntly separated with surgical scissors to expose the thick sciatic nerve. The sciatic nerve was clamped vertically with a microhemostatic forceps, buckled to the third buckle, maintained for 10 s, repeated 3 times at 5 s/interval, resulting in an injury area approximately 2 mm wide, and the sciatic nerve was put back in place and sutured layer by layer. Penicillin (40,000 units/100g) was injected intraperitoneally for three consecutive days to prevent wound infection. […]
A dark box runway of 70 cm in length, 10 cm in width and 10 cm in height was made. […] The footprint length (PL), toe width (TS) and middle toe width (IT) were then measured and brought into the Bain formula for calculation.Bain formula: SFI=109.5 (ETS−NTS)/NTS−38.3 (EPL−NPL)/NPL+13.3(EIT−NIT)/NIT−8.8. […]

cardiomyocytes = assay: Cardiomyocyte proliferation effect assay (Edu / cTnI immunofluorescence of heart tissue), adult female SD rats; type: in vivo; settings: tail vein injection 7 consecutive days, IGF1-24 100 μg/kg or molar equivalents, FIG. 1-2
Procedure: In certain embodiments, adult female SD rats were divided into five groups: PBS group, IGF1 group, IGF1Ec group, IGF1-24 group, and IGF1+IGF1Ec24 peptide group, with three rats in each group. The rats in each group were distinguished by ear clipping for subsequent protein injection according to the different body weights of the rats.
The rats in each group were injected with PBS, IGF1, IGF1Ec24 peptide, IGF1Ec and IGF1-24 for 7 consecutive days. Recombinant protein IGF1-24 was injected at 100 μg/kg, and the injection of the remaining proteins in each group was converted according to the molar amount of IGF1-24 injection as follows: 90 μg/kg for IGF1, 8.9 μg/kg for IGF1Ec24 peptide, 104 μg/kg for IGF1Ec.
Before protein injection, the rats were first weighed with a bench scale, and their body weight and the amount of protein injected were recorded and converted; then the rats were fixed with a rat fixator and their tails were exposed, and their tails were soaked in hot water for 1-2 min to stretch the tail vessels and facilitate the search for blood vessels; then the tails were wiped with alcohol cotton balls; after the tail vein was identified, the needle was inserted into the vessel at a 45° angle to the tail vein and the drug was slowly pushed in; the needle before pressing the wound with cotton to stop the bleeding, and then pull out the needle. […]

Substance: IGF1-24: 97 amino acids: amino-terminal 70 identical to IGF1, carboxyl-terminal 24 identical to IGFEc24 peptide, joined by three Gly linkers (SEQ ID NO: 4)
- expression of GAP-43 in the sciatic nerve (immunofluorescence) (sciatic nerve; after 14 days of IGF1-24 100 μg/kg intraperitoneally, significantly different from control and Injury groups, FIG. 15): remained at a high level
- sciatic nerve index (SFI) (sciatic nerve; treated group after IGF1-24 treatment, footprint analysis, Bain formula, FIG. 17): close to that of the uninjured group
- number of Edu-positive cardiomyocytes (cardiomyocytes): 2.6%
